This note sets out measurements from patent US12077503B2, “Substituted cyclic amides and their use as herbicides” (FMC CORPORATION, priority 2015, dated 2024).

What all share (assay): Test A preemergence
Assay type in all cases: in vivo

The subject of test [1] is giant foxtail (Setaria faberii). The following applies: Setaria faberi, pre-emergence, 240 h; for pest or weed control at 500 g/ha: 500 g ai/ha; for pest or weed control at 125 g/ha: 125 g ai/ha. A digest of the protocol: (§1)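 Treatment is preemergence as a directed soil spray after planting, or postemergence at the one- to two-leaf stage, with test chemical in a non-phytotoxic solvent mixture plus surfactant. Plants stay in the greenhouse about 10 d before visual injury scoring on a 0 to 100 scale versus untreated controls.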

For the next test, the system named is Kochia (Kochia scoparia). The following applies: Bassia scoparia, pre-emergence, 240 h; for pest or weed control at 500 g/ha: 500 g ai/ha; for pest or weed control at 125 g/ha: 125 g ai/ha. A digest of the protocol:
as §1

Test [2] has as its system ragweed (common ragweed, Ambrosia elatior). The following applies: Ambrosia artemisiifolia, pre-emergence, 240 h; for pest or weed control at 500 g/ha: 500 g ai/ha; for pest or weed control at 125 g/ha: 125 g ai/ha. In outline:
as §1

The subject of test [3] is ryegrass, Italian (Italian ryegrass, Lolium multiflorum). The following applies: Lolium multiflorum, pre-emergence, 240 h, read-out: Plant response rating, Ryegrass, Italian; for pest or weed control at 125 g/ha: 125 g ai/ha; for pest or weed control at 500 g/ha: 500 g ai/ha. In outline: as §1
In test [4] the test system is pigweed (Amaranthus retroflexus). The following applies: Amaranthus retroflexus, pre-emergence, 240 h; for pest or weed control at 500 g/ha: 500 g ai/ha; for pest or weed control at 125 g/ha: 125 g ai/ha.
The subject of test [5] is barnyardgrass (Echinochloa crus-galli). The following applies: Echinochloa crus-galli, pre-emergence, 240 h; for pest or weed control at 500 g/ha: 500 g ai/ha; for pest or weed control at 125 g/ha: 125 g ai/ha. In outline:
as §1

[6] abbreviates: preemergence, 0 to 100 scale where 0 is no effect and 100 is complete control, read-out: Foxtail, Giant plant response rating.
[7] abbreviates: Preemergence, 0 to 100 scale (0 no effect, 100 complete control), read-out: Plant response rating, Foxtail, Giant.
Where [8] appears, read: preemergence, 0 to 100 scale where 0 is no effect and 100 is complete control, read-out: Kochia plant response rating.
Setting [9] is: Preemergence, 0 to 100 scale (0 no effect, 100 complete control), read-out: Plant response rating, Kochia.
[10] abbreviates: preemergence, 0 to 100 scale where 0 is no effect and 100 is complete control, read-out: Ragweed plant response rating.
Setting [11] is: Preemergence, 0 to 100 scale (0 no effect, 100 complete control), read-out: Plant response rating, Ragweed.
Setting [12] is: Preemergence, 0 to 100 scale (0 no effect, 100 complete control).
The mark [13] stands for this setting: preemergence, 0 to 100 scale where 0 is no effect and 100 is complete control, read-out: Pigweed plant response rating.
[14] abbreviates: Preemergence, 0 to 100 scale (0 no effect, 100 complete control), read-out: Plant response rating, Pigweed.
Where [15] appears, read: preemergence, 0 to 100 scale where 0 is no effect and 100 is complete control, read-out: Barnyardgrass plant response rating.
Setting [16] is: Preemergence, 0 to 100 scale (0 no effect, 100 complete control), read-out: Plant response rating, Barnyardgrass.
[17] abbreviates: preemergence, visual rating after approx. 10 d, 0 to 100 scale where 0 is no effect and 100 is complete control, read-out: Plant response rating, Foxtail, Giant.
Where [18] appears, read: preemergence, 0 to 100 scale, 0 = no effect, 100 = complete control, read-out: Plant response rating, Foxtail, Giant.
The mark [19] stands for this setting: preemergence, visual rating after approx. 10 d, 0 to 100 scale where 0 is no effect and 100 is complete control, read-out: Plant response rating, Kochia.
The mark [20] stands for this setting: preemergence, 0 to 100 scale, 0 = no effect, 100 = complete control, read-out: Plant response rating, Kochia.
Where [21] appears, read: preemergence, visual rating after approx. 10 d, 0 to 100 scale where 0 is no effect and 100 is complete control, read-out: Plant response rating, Ragweed.
[22] abbreviates: preemergence, 0 to 100 scale, 0 = no effect, 100 = complete control, read-out: Plant response rating, Ragweed.
[23] abbreviates: preemergence, visual rating after approx. 10 d, 0 to 100 scale where 0 is no effect and 100 is complete control.
[24] abbreviates: preemergence, visual rating after approx. 10 d, 0 to 100 scale where 0 is no effect and 100 is complete control, read-out: Plant response rating, Pigweed.
Setting [25] is: preemergence, 0 to 100 scale, 0 = no effect, 100 = complete control, read-out: Plant response rating, Pigweed.
[26] abbreviates: preemergence, visual rating after approx. 10 d, 0 to 100 scale where 0 is no effect and 100 is complete control, read-out: Plant response rating, Barnyardgrass.
Setting [27] is: preemergence, 0 to 100 scale, 0 = no effect, 100 = complete control, read-out: Plant response rating, Barnyardgrass.
[28] abbreviates: preemergence, 0 to 100 scale, 0 = no effect, 100 = complete control.

Where two headings read alike, the source gives them in different places.

With `Cc1c(F)ccc([C@H]2CNC(=O)[C@@H]2C(=O)Nc2ccccc2F)c1F` [Compound 1326], the pest or weed control at 500 g/ha stood at 90% in test [1] (setting [6]); 100% in the test on Kochia (Kochia scoparia) (setting [8]); 0% in test [2] (setting [10]); 0% in test [4] (setting [13]); 90% in test [5] (setting [15]). In addition, the pest or weed control at 125 g/ha stood at 60% in test [1] (setting [7]); 30% in the test on Kochia (Kochia scoparia) (setting [9]); 0% in test [2] (setting [11]); 20% in test [3] (setting [12]); 0% in test [4] (setting [14]); 80% in test [5] (setting [16]).

`O=C1NC[C@H](c2ccc(OC(F)F)cc2)[C@H]1C(=O)Nc1ccc(F)cc1F` [Compound 1325]: the pest or weed control at 500 g/ha in test [1] (setting [6]) is 90%; with Kochia (Kochia scoparia) (setting [8]) it was 90%; in test [2] (setting [10]), 70%; in test [4] (setting [13]), 90%; in test [5] (setting [15]) it was 90%. Besides, the pest or weed control at 125 g/ha was found to be 90% in test [1] (setting [7]); 80% with Kochia (Kochia scoparia) (setting [9]); 10% in test [2] (setting [11]); 0% in test [3] (setting [12]); 60% in test [4] (setting [14]); 90% in test [5] (setting [16]).

As for `Cc1ccc(NC(=O)[C@H]2C(=O)N(C)C[C@@H]2c2cc(F)cc(F)c2)c(F)c1` [Compound 760], the pest or weed control at 125 g/ha in test [1] (setting [17]) is 100%; with Kochia (Kochia scoparia) (setting [19]), 0%; in test [2] (setting [21]), 0%; in test [3] (setting [23]) it was 0%; in test [4] (setting [24]), 0%; in test [5] (setting [26]), 100%. Also, the pest or weed control at 500 g/ha in test [1] (setting [18]) came out at 100%; in the test on Kochia (Kochia scoparia) (setting [20]) it was 60%; in test [2] (setting [22]), 0%; in test [4] (setting [25]) it was 0%; in test [5] (setting [27]), 100%.

Regarding `CCc1cc(CC)cc([C@H]2CN(C)C(=O)[C@@H]2C(=O)Nc2ccccc2F)c1` [Compound 735], the pest or weed control at 125 g/ha amounted to 90% in test [1] (setting [17]); 20% with Kochia (Kochia scoparia) (setting [19]); 0% in test [2] (setting [21]); 80% in test [3] (setting [23]); 0% in test [4] (setting [24]); 90% in test [5] (setting [26]). Further, the pest or weed control at 500 g/ha was 90% in test [1] (setting [18]); 80% with Kochia (Kochia scoparia) (setting [20]); 0% in test [2] (setting [22]); 90% in test [3] (setting [28]); 20% in test [4] (setting [25]); 90% in test [5] (setting [27]).

`COc1ccc([C@H]2CNC(=O)[C@@H]2C(=O)Nc2ccccc2S(C)(=O)=O)cc1F` [Compound 721]: the pest or weed control at 125 g/ha in test [1] (setting [17]) was 30%; in the test on Kochia (Kochia scoparia) (setting [19]), 0%; in test [2] (setting [21]), 0%; in test [3] (setting [23]) it was 0%; in test [4] (setting [24]), 0%; in test [5] (setting [26]) it was 30%. For the same molecule, the pest or weed control at 500 g/ha in test [1] (setting [18]) is 90%; in the test on Kochia (Kochia scoparia) (setting [20]), 0%; in test [2] (setting [22]), 50%; in test [3] (setting [28]), 20%; in test [4] (setting [25]), 0%; in test [5] (setting [27]), 80%.

Turning to `CN1C[C@H](c2ccc(C(F)(F)F)cc2)[C@@H](C(=O)Nc2cccc(F)c2C#N)C1=O` [Compound 1380], the pest or weed control at 500 g/ha in test [1] (preemergence, 0 to 100 scale (0 no effect, 100 complete control), read-out: Plant response rating, Foxtail, Giant) is 100%; in the test on Kochia (Kochia scoparia) (preemergence, 0 to 100 scale (0 no effect, 100 complete control), read-out: Plant response rating, Kochia) it was 90%; in test [2] (preemergence, 0 to 100 scale (0 no effect, 100 complete control), read-out: Plant response rating, Ragweed) it was 80%; in test [3] (preemergence, 0 to 100 scale (0 no effect, 100 complete control)), 50%; in test [4] (preemergence, 0 to 100 scale (0 no effect, 100 complete control), read-out: Plant response rating, Pigweed), 90%; in test [5] (preemergence, 0 to 100 scale (0 no effect, 100 complete control), read-out: Plant response rating, Barnyardgrass) it was 100%. Besides, the pest or weed control at 125 g/ha was 100% in test [1] (setting [7]); 80% with Kochia (Kochia scoparia) (setting [9]); 70% in test [2] (setting [11]); 50% in test [3] (setting [12]); 80% in test [4] (setting [14]); 90% in test [5] (setting [16]).
